In data set [1] the test system is testosterone level in NCI-H295R cells. The data set is described as follows: cells. The class given is cell-based. To be noted: Homo sapiens, 72 h; for inhibition at 0.1 µM: read-out: Testosterone level in H295R (Elisa) inh.% 100 nM; for inhibition at 1 µM: read-out: Testosterone level in H295R (Elisa) inh.% 1000 nM; for IC50: read-out: IC50/nM. How it is done: 1. The purpose of the experimental study was intended to detect the testosterone level in the NCI-H295R cells by adopting the Enzyme linked immunosorbent assay (ELISA), so as to evaluate the inhibitory effects of the compounds on the testosterone level in the NCI-H295R cells. The H295R cells were purchased from ATCC, the cell complete medium contained DMEM: F12+ 10% FBS +0.00625 mg/ml insulin +0.00625 mg/ml transferrin+6.25 ng/ml selenium +1.25 mg/ml BSA+0.00535 mg/ml linoleic acid, and the cells were cultured in a 37°C, 5% CO2 incubator. The cells in the exponential growth phase were collected, and cultured in a cytokine-free medium (phenol red 1640-free +1% PS+10% css FBS+1.25 mg/ml BSA +0.00625 mg/ml insulin + 0.00625 mg/ml transferrin+6.25 ng/ml selenium+0.00535 mg/ml linoleic acid) for 3 days. The cells in the exponential growth phase were collected on the third day. The cell suspension was adjusted with a cytokine-free medium to a corresponding concentration and plated at 60000 cells/well, with the volume being 90 µL/well. Subsequently, 10 µL of the compounds at different concentrations was added and the plate was incubated in a CO2 incubator for 3 days. After the incubation was completed, according to the operation instructions for testosterone Elisa kit (Beyotime, PT872), 50 µL of the cell culture supernatant was collected from each well and centrifuged at 500 g for 5 min at room temperature and then the resulting supernatant was collected. The samples were added to the corresponding wells at 25 µl/well, and then formulated horseradish peroxidase labeled testosterone was added at 75 µl/well. The mixture was fully mixed for 10 seconds. The reaction wells were sealed with a plate-sealing film (white) and the mixture was incubated at room temperature in the dark for 120 min. The plate was washed 3 times with a volume of 300 µl per well, and then placed onto thick absorbent paper and dried. Chromogenic reagent TMB solution was added at 100 µl/well. The reaction wells were sealed with a plate-sealing film (white) and the mixture was incubated at room temperature in the dark for 15-20 min. Subsequently, a termination solution was added at 50 µl/well, and after the mixture was fully mixed, the absorbance value OD450 was immediately measured. The absorbance readings were processed using Graphpad Prim 8.0 software and S-shaped concentration curves were plotted and the IC50 values were calculated using a four-parameter non-linear regression model. The results were processed according to formula (1), the inhibition rate of the compound at different concentrations was calculated, and the IC50 value of the compound with an inhibition rate of 50% was calculated using Graphpad Prim 8.0 software, wherein RLU compound was the readout of the treated group, and RLU control was the average value of the solvent control group. Inhibition rate% = 100-RLUcompound /RLUcontrol × 100 [formula] Table 1. Inhibitory activity on testosterone level in NCI-H295R cells

Data set [2] can be described thus: Pharmacokinetic test in rats. The format is in vivo. The settings on record: rat, male SD rats, plasma; for Vd: read-out: Vdss. How it is done: 3.1 Experimental animals: Male SD rats (about 220 g, 6-8 weeks old, 6 rats/compound), purchased from Chengdu Dossy Experimental Animals Co., Ltd.
3.2 Experimental design: On the day of the experiment, the SD rats were randomly grouped by body weight. […] Table 3. Administration information
Before and after the administration, 0.1 ml of blood was taken from the orbit of the animals under isoflurane anesthesia and placed in an EDTAK2 centrifuge tube. The blood was centrifuged at 5000 rpm and 4°C for 10 min to collect plasma. […] Before analysis and detection, all samples were stored at -80°C. Table 4. Pharmacokinetic parameters of test compounds in plasma of rats

[3] abbreviates: po, intragastric administration (10 mg/kg).
Where [4] appears, read: intravenous administration (2.5 mg/kg).

One may read the AUC(0-t) as the area under the concentration-time curve up to a stated or last time point. Read a high AUC(0-t) as more exposure. The half-life is the time needed for the level to fall by half in the phase considered. Low values mean fast loss, high ones slow loss. Broadly, the clearance is the rate of elimination divided by the concentration.

For the compound `CS(=O)(=O)N1CCC(COc2ccc(CN3Cc4ccccc4C3)c3cccnc23)CC1` [Compound 4], in data set [1], the inhibition at 0.1 µM was determined as 81.5% and the inhibition at 1 µM was found to be 89.2%.
On to `CS(=O)(=O)N1CCC(CCOc2cc(CN3Cc4ccccc4C3)ccn2)CC1` [Compound 10], for which, in data set [1], the IC50 is 81.9 nM and the inhibition at 1 µM turned out to be 85.4%.
As for `CS(=O)(=O)N1CCC(CCn2ccc(CN3Cc4ccc(C5CC5)cc4C3)cc2=O)CC1` [Compound 16], in data set [1], the inhibition at 0.1 µM was determined as 51.7% and the inhibition at 1 µM came out at 89.4%.
Consider `CS(=O)(=O)N1CCC(c2cc3oc(CN4Cc5ccc(C(F)(F)F)cc5C4)cc(=O)c3o2)CC1` [Compound 30], for which, in data set [1], the IC50 is 35.3 nM, the inhibition at 0.1 µM came out at 59.1% and the inhibition at 1 µM turned out to be 80.9%.
For `O=C(OC1CC1)N1CCC(COc2ccc(CN3Cc4ccc(C(F)(F)F)cc4C3)c3ccc(F)nc23)CC1` [Compound 36], in data set [1], the inhibition at 0.1 µM stood at 56.8% and the inhibition at 1 µM was found to be 62%.
For `CS(=O)(=O)N1CC(OC(=O)N2CCC(COc3ccc(CN4Cc5ccc(C(F)(F)F)cc5C4)c4c3OCCO4)CC2)C1` [Compound 37] the same measures were 87.1% and 77%.
In the case of `CS(=O)(=O)N1CC(OC(=O)N2CCC(COc3ccc(CN4Cc5ccc(C(F)(F)F)cc5C4)c4c3S(=O)(=O)CC4)CC2)C1` [Compound 39], in data set [1], the inhibition at 0.1 µM was 55.8% and the inhibition at 1 µM was 74.6%.
Turning to `O=C(OC1CC1)N1CCC(CCOc2cc(CN3Cc4ccc(C(F)(F)F)cc4C3)ccn2)CC1` [Compound 40], the IC50 in data set [1] came to 77 nM. In addition, in data set [2] (setting [3]), the area under the curve AUC(0-t) was found to be 4210 ng·h/mL and the half-life was 11.1 h. Besides, in data set [2] (setting [4]), the AUC(0-t) came to 1950 ng·h/mL, the clearance worked out at 19.1 mL/min/kg, the half-life is 9.77 h and the Vd is 9.21 L/kg.
With `CS(=O)(=O)N1CC(OC(=O)N2CCC(CCOc3cc(CN4Cc5ccsc5C4)ccn3)CC2)C1` [Compound 41], in data set [1], the inhibition at 0.1 µM was found to be 51.5% and the inhibition at 1 µM was 67.9%.
Take `O=C(OC1CC1)N1CCC(Cc2cc3oc(CN4Cc5ccc(C(F)(F)F)cc5C4)cc(=O)c3o2)CC1` [Compound 42]: in data set [1], the inhibition at 0.1 µM was found to be 76.9% and the inhibition at 1 µM was 82.6%.
On the same counts, the results for `O=C(OC1CC1)N1CCC(/C=C/c2coc(CN3Cc4cc5c(cc4C3)CCC5)cc2=O)CC1` [Compound 43] are 75.6% and 77.8%.
On the same counts, the results for `O=C(OC1CC1)N1CCC2(CC1)CC(Oc1cc(CN3Cc4ccc(C(F)(F)F)cc4C3)ccn1)C2` [Compound 48] are 77.5% and 78.2%.
On the same counts, the results for `CS(=O)(=O)N1CC(OC(=O)N2CCC(CCOc3cc(CN4Cc5ccc(C(F)(F)F)cc5C4)ccn3)CC2)C1` [Compound 49] are 57.7% and 65.2%.
In the case of `O=C(N[C@H]1CC[C@H](CCOc2cc(CN3Cc4ccc(C(F)(F)F)cc4C3)ccn2)CC1)OC1CC1` [Compound 51], in data set [1], the inhibition at 0.1 µM came out at 74.4% and the inhibition at 1 µM was 78.5%. For the same compound, in data set [2] (setting [3]), the AUC(0-t) is 13600 ng·h/mL and the half-life was 9.63 h. In data set [2] (setting [4]), the AUC(0-t) turned out to be 4000 ng·h/mL, the clearance was 9.32 mL/min/kg, the half-life is 8.52 h and the Vd was found to be 4.58 L/kg.
Turning to `N#Cc1cc(CN2Cc3ccc(C(F)(F)F)cc3C2)cc2cc(C3CCN(C(=O)OC4CC4)CC3)oc12` [Compound 53], in data set [1], the inhibition at 0.1 µM came out at 72.5% and the inhibition at 1 µM was found to be 85.5%. Also, in data set [2] (setting [3]), the AUC(0-t) was determined as 6750 ng·h/mL and the half-life is 8.13 h. Besides, in data set [2] (setting [4]), the AUC(0-t) amounted to 3110 ng·h/mL, the clearance is 11 mL/min/kg, the half-life was 13.2 h and the Vd came to 8.06 L/kg.
For the compound `COc1cc(CN2Cc3ccc(C(F)(F)F)cc3C2)cc2cc(C3CCN(C(=O)OC4CC4)CC3)oc12` [Compound 54], in data set [1], the inhibition at 0.1 µM came to 59.1% and the inhibition at 1 µM came to 78.4%. In data set [2] (setting [3]), this compound gave an AUC(0-t) of 5840 ng·h/mL and a half-life of 7.74 h. In data set [2] (setting [4]), the area under the curve AUC(0-t) was 3560 ng·h/mL, the clearance stood at 10.3 mL/min/kg, the half-life was 10.3 h and the Vd stood at 6.41 L/kg.
For the compound `O=C(OC1CC1)N1CCC(CCOc2ccnc(CN3Cc4ccc(C(F)(F)F)cc4C3)c2)CC1` [Compound 59], in data set [1], the inhibition at 0.1 µM amounted to 60% and the inhibition at 1 µM was 76%.
For the compound `O=C(N[C@H]1CC[C@H](CCOc2cc(CN3Cc4ccc(C5CC5)cc4C3)ccn2)CC1)C1CC1` [Compound 60], in data set [2] (setting [3]), the AUC(0-t) turned out to be 27100 ng·h/mL and the half-life was 2.36 h. For the same compound, in data set [2] (setting [4]), the AUC(0-t) amounted to 6080 ng·h/mL, the clearance was found to be 6.8 mL/min/kg, the half-life is 1.75 h and the Vd was found to be 0.951 L/kg.
Regarding `O=C(N[C@H]1CC[C@H](Cc2cc3oc(CN4Cc5ccc(C(F)(F)F)cc5C4)cc(=O)c3o2)CC1)C1CC1` [Compound 66], in data set [1], the inhibition at 0.1 µM worked out at 54.8% and the inhibition at 1 µM turned out to be 76.7%.
On the same counts, the results for `[2H]C([2H])([2H])C(=O)N[C@H]1CC[C@H](Cc2cc3oc(CN4Cc5ccc(C(F)(F)F)cc5C4)cc(=O)c3o2)CC1` [Compound 67] are 52% and 72%.
On the same counts, the results for `N#Cc1cc(CN2Cc3ccc(C(F)(F)F)cc3C2)cc2cc([C@H]3CC[C@H](NC(=O)C4CC4)CC3)oc12` [Compound 69] are 79% and 80%.
For `O=C(N[C@H]1CC[C@H](CCOc2cc(CN3Cc4ccc(C(F)(F)F)cc4C3)ccn2)CC1)[C@H]1CC1(F)F` [Compound 70] the same measures were 68.9% and 76.3%.
For the compound `O=C(N[C@H]1CC[C@H](c2cc3oc(CN4Cc5ccc(C(F)(F)F)cc5C4)cc(=O)c3o2)CC1)C1CC(F)(F)C1` [Compound 72], in data set [1], the inhibition at 0.1 µM is 81% and the inhibition at 1 µM was found to be 88%.
On the same counts, the results for `COc1nc(CN2Cc3ccc(C(F)(F)F)cc3C2)ccc1OCC1CCN(C(=O)C2CC(F)(F)C2)CC1` [Compound 75] are 76.2% and 90.4%.
On the same counts, the results for `O=C(CC(F)(F)F)N[C@H]1CC[C@H](CCOc2cc(CN3Cc4ccc(C(F)(F)F)cc4C3)ccn2)CC1` [Compound 76] are 70% and 78%.
As for `CS(=O)(=O)N1CCC(C2=COc3cc(CN4Cc5ccc(C(F)(F)F)cc5C4)ccc3O2)CC1` [Compound 84], in data set [1], the IC50 is 38 nM, the inhibition at 0.1 µM is 74% and the inhibition at 1 µM was determined as 83%.

(Values after patent EP4700022A1, “CYP11A1 INHIBITORS AND USE THEREOF” (Xizang Haisco Pharmaceutical Co., Ltd., priority 2023, dated 2024).)
